3 compounds from ChEMBL document CHEMBL1153130, “Discovery of dipiperidines as new antitubercular agents” (Bioorg Med Chem Lett, 2010) can be followed below.

In brackets after ≈: the same amount, converted by molar mass.

Experiment [1] concerns Mycobacterium tuberculosis. The experiment is described as follows: Antitubercular activity against Mycobacterium tuberculosis H37Rv after 10 to 14 days by broth microdilution assay. It counts as functional. For orientation: In broth dilution the organism is exposed to a series of concentrations in liquid medium.
For experiment [2], the system named is Mycobacterium tuberculosis. The experiment is described as follows: Antitubercular activity against Mycobacterium tuberculosis H37Rv assessed as inhibition of cell wall biosynthesis after 10 to 14 days by bioluminescence assay relative to ethambutol. It counts as functional. Also noted: scale not given: the % may be the effect or the level left.
Experiment [3] has as its system HepG2. The experiment is described as follows: Cytotoxicity against human HepG2 cells after 72 hrs by MTS assay. It is filed as cell-based. The note with it: HepG2, 72 h. A general note: Formazan colour is commonly taken as a measure of viable cells.
Experiment [4] in a line: Selectivity index, IC50 for human HepG2 cells to MIC for Mycobacterium tuberculosis H37Rv ATCC 25618. It is filed as functional.
The subject of experiment [5] is Mycobacterium tuberculosis. The experiment is described as follows: Antitubercular activity against Mycobacterium tuberculosis H37Rv after 10 to 14 days by BACTEC assay. It counts as functional.

By MIC is commonly meant the lowest concentration that inhibits growth of the organism. A word on the IC50: it is the concentration that inhibits the measured activity by half. In experiment [1], `OC1CCN(CC2CCN(C3C4CC5CC(C4)CC3C5)CC2)CC1` (centres undefined) came in with an MIC of 31.2 µM (≈ 10.4 µg/mL). In experiment [2], the Activity amounted to 102%. In experiment [3], this compound showed a half-maximal inhibitory concentration (IC50) of 25 µM. Besides, the “Selectivity Index” value in experiment [4] was 0.8.
As to `OC1CCN(CC2CCN(CC(c3ccccc3)c3ccccc3)CC2)CC1`, the MIC in experiment [1] turned out to be 7.8 µM (≈ 2.95 µg/mL); in experiment [5] it was 16 µM (≈ 6.06 µg/mL). In experiment [2], the Activity was determined as 125%. The compound also gave an IC50 in experiment [3] of 30 µM. Also, the “Selectivity Index” value in experiment [4] is 3.85.
Regarding `OC1CCN(CC2CCN(CC34CC5CC(CC(C5)C3)C4)CC2)CC1`, the MIC in experiment [1] was 6.25 µM (≈ 2.17 µg/mL); in experiment [5], 15.6 µM (≈ 5.41 µg/mL). In addition, in experiment [2], the Activity is given as 59%. In addition, in experiment [3], the IC50 was determined as 56 µM. Further, the “Selectivity Index” value in experiment [4] amounted to 8.96.
